# Source: patent US10501518B2 (priority 2013, dated 2019)
# Starred links: 1 amine or outer side, 2 acyl side, 3 side chain; linkers in the order of their positions; H or OH if unused. Non-standard residues stand in square brackets, D forms with d. Residues, ends and D or L forms follow the SMILES beside them. *: point of attachment. NH(1S,2S-2-CONH2-cPent) = NC(=O)[C@H]1CCC[C@@H]1N*; X12 = O=C([C@H]1CCC[C@@H]1N[*:1])[*:2]; X13 = O=C([C@H]1CNC[C@@H]1N[*:1])[*:2]; ACPC(1S,2S) = N[C@H]1CCC[C@@H]1C(=O)*; hArg = N=C(N)NCCCC[C@H](N)C(=O)O; β3hE = N[C@@H](CCC(=O)O)CC(=O)O; β3hD = NC(CC(=O)O)CC(=O)O; Aib = CC(C)(N)C(=O)O
# Key:
# R^0 form of human PTHR-1 = target: T1, R^0 form of human PTHR-1 (Homo sapiens, UniProt Q03431); assay: Radio-ligand competition binding to R^0 form of human PTHR-1 (COS-7 membranes, 125I-PTH(1-34) tracer, GTPγS)
# T1 construct: expressed in transfected cells; host or cells: COS-7
# T1 sequence (Q03431 27-593): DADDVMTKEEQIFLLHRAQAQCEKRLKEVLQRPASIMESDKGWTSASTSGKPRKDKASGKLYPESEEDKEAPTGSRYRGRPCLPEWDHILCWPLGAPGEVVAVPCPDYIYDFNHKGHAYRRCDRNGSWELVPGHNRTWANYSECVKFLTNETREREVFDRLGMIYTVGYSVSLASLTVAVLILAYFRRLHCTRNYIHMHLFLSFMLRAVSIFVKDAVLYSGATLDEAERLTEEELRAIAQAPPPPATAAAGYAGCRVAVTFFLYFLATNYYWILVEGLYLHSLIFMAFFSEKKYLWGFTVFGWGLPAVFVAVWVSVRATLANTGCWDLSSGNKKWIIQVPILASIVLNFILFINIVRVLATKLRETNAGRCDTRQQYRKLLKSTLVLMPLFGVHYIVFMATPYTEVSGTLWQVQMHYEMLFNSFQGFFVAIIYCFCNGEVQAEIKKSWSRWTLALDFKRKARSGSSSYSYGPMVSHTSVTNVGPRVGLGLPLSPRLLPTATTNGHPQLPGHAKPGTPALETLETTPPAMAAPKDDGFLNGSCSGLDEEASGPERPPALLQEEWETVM
# Description: Data are means (±SEM) of n≥4 experiments, each performed in duplicate.
# WT human PTHR-1 = target: T2, WT human PTHR-1 (Homo sapiens, UniProt Q03431); assay: cAMP GloSensor dose-response in GP-2.3 cells expressing human PTHR-1; type: cell-based; conditions: for cAMP (hPTHR-1) Max: luminescence counts per second relative to PTH(1-34); for cAMP (hPTHR-1) Max / Max: 12-16 minutes after ligand addition; for Max: Table 6, mean ± SEM; for agonist activity at hPTHR-1 (cAMP response), in words: maximum cAMP response compared with PTH(1-34)
# T2 construct: bioactivity of the resulting compound in full-length hPTHR-1 and a truncated version; expressed in transfected cells
# T2 sequence (Q03431 27-593): T1 sequence (Q03431 27-593)
# Description: FIGS. 8A, 8B, and 8C constitute a series of graphs depicting cAMP responses in GP-2.3 cells expressing wild-type human parathyroid hormone receptor 1 (PTHR-1-WT). […] Data are means (±SEM) of n>4 experiments, each performed in duplicate.
# (§1) For cAMP dose-response assays, monolayers of confluent HEK 293 cells were pre-incubated with buffer containing d-luciferin (0.5 mM) in 96 well plates at room temperature until a stable baseline level of luminescence was established (30 min). Varying concentrations of agonist were then added, and the time course of luminescence response was recorded using a Perkin Elmer plate reader following α/β-peptide addition.
# WT rat PTHR-1 = target: T3, WT rat PTHR-1 (Rattus norvegicus, UniProt P25961); assay: cAMP GloSensor dose-response in GR-35 cells expressing rat PTHR-1; type: cell-based; conditions: Table 7; GR-35 cells, 12-16 minutes after ligand addition; mean ± SEM
# T3 construct: expressed in transfected cells
# T3 sequence (P25961 27-591): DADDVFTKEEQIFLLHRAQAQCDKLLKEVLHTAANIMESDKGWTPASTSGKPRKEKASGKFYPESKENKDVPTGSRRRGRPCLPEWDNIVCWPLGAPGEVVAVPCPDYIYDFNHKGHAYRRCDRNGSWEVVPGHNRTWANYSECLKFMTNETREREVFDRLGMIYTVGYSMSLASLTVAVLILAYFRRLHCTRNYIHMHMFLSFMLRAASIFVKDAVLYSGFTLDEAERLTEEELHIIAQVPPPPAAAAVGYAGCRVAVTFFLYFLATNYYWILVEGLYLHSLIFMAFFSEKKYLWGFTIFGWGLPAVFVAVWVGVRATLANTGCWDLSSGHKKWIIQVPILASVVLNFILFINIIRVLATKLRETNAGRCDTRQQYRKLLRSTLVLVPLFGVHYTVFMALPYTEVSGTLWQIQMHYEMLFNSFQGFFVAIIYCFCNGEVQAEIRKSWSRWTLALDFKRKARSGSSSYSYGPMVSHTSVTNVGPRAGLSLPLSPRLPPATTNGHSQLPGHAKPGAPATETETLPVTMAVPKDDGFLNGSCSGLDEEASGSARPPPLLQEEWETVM
# Description: FIGS. 9A, 9B, and 9C constitute a series of graphs depicting cAMP responses in GR-35 cells expressing rat PTHR-1-WT. […] Data are means (±SEM) of n>4 experiments, each performed in duplicate.
# as §1
# PTHR = target: T4, PTHR (Homo sapiens, UniProt Q03431); assay: cAMP induction potency, N-terminal modifications and cyclic constraints (Tables 9, 10, 13); type: cell-based
# T4 construct: expressed in transfected cells
# T4 sequence (Q03431 27-593): T1 sequence (Q03431 27-593)
compound,measurement,setting,value
CC[C@H](C)[C@H](NC(=O)[C@H](CCC(=O)O)NC(=O)[C@H](CO)NC(=O)[C@@H](NC(=O)[C@@H](N)CO)C(C)C)C(=O)N[C@@H](CCC(N)=O)C(=O)N[C@@H](CC(C)C)C(=O)N[C@@H](CCSC)C(=O)N[C@@H](Cc1c[nH]cn1)C(=O)N[C@@H](CC(N)=O)C(=O)N[C@@H](CC(C)C)C(=O)NCC(=O)N[C@@H](CCCCN)C(=O)N[C@@H](Cc1c[nH]cn1)C(=O)N[C@@H](CC(C)C)C(=O)N[C@@H](CC(N)=O)C(=O)N[C@@H](CO)C(=O)N[C@@H](CCSC)C(=O)N[C@@H](CCC(=O)O)C(=O)N[C@@H](CCCNC(=N)N)C(=O)N[C@H](C(=O)N[C@@H](CCC(=O)O)C(=O)N[C@@H](Cc1c[nH]c2ccccc12)C(=O)N[C@H](CC(=O)N[C@@H](CCCNC(=N)N)C(=O)N[C@@H](CCCCN)C(=O)N[C@@H](CCCCN)C(=O)N[C@H](CC(=O)N[C@@H](CCC(N)=O)C(=O)N[C@@H](CC(=O)O)C(=O)N[C@H](C(=O)N[C@@H](CCC(N)=O)CC(=O)N[C@@H](CC(N)=O)C(=O)N[C@@H](Cc1ccccc1)C(N)=O)C(C)C)CC(C)C)CC(C)C)C(C)C [B3],IC50,"R^0 form of human PTHR-1; Table 1, COS-7 membranes, 125I-PTH(1-34) tracer, GTPγS, read-out: R^0 IC50, nM, Binding (hPTHR-1)",80 nM
same,EC50,"WT human PTHR-1; Table 1, GP-2.3 cells, read-out: cAMP (hPTHR-1) EC50",110 pM
same,cAMP (hPTHR-1) Max,WT human PTHR-1; Table 1,1.08
same,Max,WT human PTHR-1; GP-2.3 cells,234 ± 16 luminescence counts per second × 10^−3
same,"agonist activity at hPTHR-1 (cAMP response), in words",WT human PTHR-1,full agonists of hPTHR-1
same,Max,WT rat PTHR-1,69 ± 78 luminescence counts per second × 10−3
CC[C@H](C)[C@H](NC(=O)[C@H](CCC(=O)O)NC(=O)[C@H](CO)NC(=O)[C@@H](NC(=O)[C@@H](N)CO)C(C)C)C(=O)N[C@@H](CCC(N)=O)C(=O)N[C@@H](CC(C)C)C(=O)N[C@@H](CCSC)C(=O)N[C@@H](Cc1c[nH]cn1)C(=O)N[C@@H](CC(N)=O)C(=O)N[C@@H](CC(C)C)C(=O)NCC(=O)N[C@@H](CCCCN)C(=O)N[C@@H](Cc1c[nH]cn1)C(=O)N[C@@H](CC(C)C)C(=O)N[C@@H](CC(N)=O)C(=O)N[C@@H](CO)C(=O)N[C@@H](CCSC)C(=O)N[C@@H](CCC(=O)O)C(=O)N[C@@H](CCCNC(=N)N)C(=O)N[C@H](C(=O)N[C@@H](CCC(=O)O)C(=O)N[C@@H](Cc1c[nH]c2ccccc12)C(=O)N[C@@H](CC(C)C)C(=O)N[C@@H](CCCNC(=N)N)C(=O)N[C@@H](CCCCN)CC(=O)N[C@@H](CCCCN)C(=O)N[C@@H](CC(C)C)C(=O)N[C@@H](CCC(N)=O)C(=O)N[C@@H](CC(=O)O)CC(=O)N[C@H](C(=O)N[C@@H](Cc1c[nH]cn1)C(=O)N[C@@H](CC(N)=O)C(=O)N[C@H](CC(N)=O)Cc1ccccc1)C(C)C)C(C)C [D3],"affinity for the R^0 state of hPTHR-1, in words",R^0 form of human PTHR-1; compared with PTH(1-34),matches PTH(1-34)
same,cAMP (hPTHR-1) Max,WT human PTHR-1; Table 1,1.04
same,Max,WT human PTHR-1; GP-2.3 cells,226 ± 15 luminescence counts per second × 10^−3
same,"agonist activity at hPTHR-1 (cAMP response), in words",WT human PTHR-1,full agonists of hPTHR-1
same,Max,WT rat PTHR-1,65 ± 62 luminescence counts per second × 10−3
"CSCC[C@H](NC(=O)[C@H]1CCC[C@@H]1NC(=O)[C@H](CCC(N)=O)NC(=O)[C@H]1CCC[C@@H]1NC(=O)[C@H](CCC(=O)O)NC(=O)C(C)(C)NC(=O)[C@@H](NC(=O)[C@H]1CCC[C@@H]1N)C(C)C)C(=O)N[C@@H](Cc1c[nH]cn1)C(=O)N[C@@H](CCC(N)=O)C(=O)N[C@@H](CCCCNC(=N)N)C(=O)N[C@@H](C)C(=O)N[C@@H](CCCCN)C(=O)N[C@H]1CCC[C@@H]1C(=O)N[C@@H](CC(C)C)C(=O)N[C@@H](CC(N)=O)C(=O)N[C@@H](CO)C(=O)N[C@H]1CCC[C@@H]1C(=O)N[C@@H](CCCNC(=N)N)C(=O)N[C@@H](CCCNC(=N)N)C(=O)N[C@H](C(=O)N[C@@H](CCC(=O)O)CC(=O)N[C@@H](Cc1c[nH]c2ccccc12)C(=O)N[C@@H](CC(C)C)C(=O)N[C@@H](CCCNC(=N)N)C(=O)N[C@H]1CNC[C@@H]1C(=O)N[C@@H](CCCCN)C(=O)N[C@@H](CC(C)C)C(=O)N[C@@H](CCC(N)=O)C(=O)N[C@@H](CC(=O)O)CC(=O)N[C@H](C(=O)N[C@@H](Cc1c[nH]cn1)C(=O)N[C@@H](CC(N)=O)C(=O)N[C@H]1CCC[C@@H]1C(N)=O)C(C)C)C(C)C [M-X1,5,7-CycD6, HXVUEXQXMHQ^hRAKXLNSXRRVEWLRZKLQDVHNX-NH2] ({ACPC(1S,2S)}-V[Aib]E[X12]Q[X12]MHQ[hArg]AK[X12]LNS[X12]RRV[β3hE]WLR[X13]KLQ[β3hD]VHN-{NH(1S,2S-2-CONH2-cPent)}; N-terminus assumed)",Fold PTH,PTHR; Table 10,3.8
"CC[C@H](C)[C@H](NC(=O)[C@H](CCC(=O)O)NC(=O)[C@H](CO)NC(=O)[C@@H](NC(=O)[C@@H](N)CO)C(C)C)C(=O)N[C@@H](CCC(N)=O)C(=O)N[C@@H](CC(C)C)C(=O)N[C@@H](CCSC)C(=O)N[C@@H](Cc1c[nH]cn1)C(=O)N[C@@H](CC(N)=O)C(=O)N[C@@H](CC(C)C)C(=O)NCC(=O)N[C@@H](CCCCN)C(=O)N[C@H]1CCC[C@@H]1C(=O)N[C@@H](CC(C)C)C(=O)N[C@@H](CC(N)=O)C(=O)N[C@@H](CO)C(=O)N[C@H]1CCC[C@@H]1C(=O)N[C@@H](CCC(=O)O)C(=O)N[C@@H](CCCNC(=N)N)C(=O)N[C@H](C(=O)N[C@@H](CCC(=O)O)CC(=O)N[C@@H](Cc1c[nH]c2ccccc12)C(=O)N[C@@H](CC(C)C)C(=O)N[C@@H](CCCNC(=N)N)C(=O)N[C@H]1CNC[C@@H]1C(=O)N[C@@H](CCCCN)C(=O)N[C@@H](CC(C)C)C(=O)N[C@@H](CCC(N)=O)C(=O)N[C@@H](CC(=O)O)CC(=O)N[C@H](C(=O)N[C@@H](Cc1c[nH]cn1)C(=O)N[C@@H](CC(N)=O)C(=O)N[C@H]1CCC[C@@H]1C(N)=O)C(C)C)C(C)C [cycD6, SVSEIQLMHNLGKXLNSXERVEWLRZKLQDVHNX-NH2] (H-SVSEIQLMHNLGK[X12]LNS[X12]ERV[β3hE]WLR[X13]KLQ[β3hD]VHN-{NH(1S,2S-2-CONH2-cPent)}; N-terminus assumed)",Fold PTH,PTHR; Table 9,1.3
same,EC50,"PTHR; Table 9, read-out: EC50, nM (cAMP induction potency)",0.1 ± 0.01 nM
AVAEIQXMHQ^hRAKXLNSXRRVEWLRZKLQDVHNX-NH2 [M-cycD6],Fold PTH,PTHR; Table 10,4.0
AVAEIQXMHQ^hRAKXLNSXRRVZWLRZKLQXVHNX-NH2 [M-FcycD6],Fold PTH,PTHR; Table 10,6.3
"XVSEIQXMHNLGKWLNSMERVEWLRKKLQDVHNF-NH2 [D6_ACPC(1,7)]",Fold PTH,PTHR; Table 9,22.6
"XVSEXQXMHNLGKWLNSMERVEWLRKKLQDVHNF-NH2 [D6_ACPC(1,5,7)]",Fold PTH,PTHR; Table 9,"2,045"
"XVUEXQXMHQ^hRAKWLNSMRRVEWLRKKLQDVHNF.-NH2 [M-X1,5,7-D6]",Fold PTH,PTHR; Table 10,9.7
